The values that follow come from US11464783B2, “Heterocyclic compounds” (Aligos Therapeutics, Inc., priority 2019, dated 2022).

SMILES strings stand for the structures.

One experiment concerns HBV. Kind of experiment: HBV-DNA Antiviral Assay Using HepG2.117 Cells. The class given is cell-based. To be noted: Hepatitis B virus, HepG2.117, 96 h, intracellular HBV DNA by qPCR, day 4. As for the experimental part:
The following assay procedure describes the HBV antiviral assay, using HepG2.117 cells, which carry a stably integrated genotype D HBV genome under the control of a Tet-off promoter, and intracellular HBV DNA quantification as endpoint. Cell viability is assessed in parallel by measuring the intracellular ATP content using ATPlite (Perkin Elmer).
On day 0, HepG2.117 cells (which are maintained in routine cell culture with doxycycline present in the medium at a final concentration of 1 μg/mL) were seeded in 96-well plates (white with clear bottom) at a density of 2.0×10^4 cells/well (0.1 mL/well) in medium without doxycycline to induce pgRNA transcription and subsequent formation of HBV particles. The cells were incubated at 37° C. and 5% CO2.
On day 1, medium was removed from each well, the test articles were diluted in culture medium without doxcycyline and 100 μL was added to cell culture wells (9 concentrations, 4-fold dilution). For each plate, 6 untreated (merely DMSO) wells were included. The final concentration of DMSO in the culture medium was 2%. Each plate was prepared in duplicate (one for HBV DNA extraction, one for ATPlite measurement). The cells were incubated at 37° C. and 5% CO2 for 3 days.
On day 4, cell viability was assessed using ATPlite and cell lysates were prepared for HBV DNA extraction and subsequent quantification by qPCR.
Medium was removed from each well and 100 μL of 0.33% NP-40 in H2O was added to each well. Plates were sealed, incubated at 4° C. for 5 mins, vortexed extensively and centrifuged briefly. Next, 35 μL of lysate was added to 65 μL QuickExtract DNA Extraction Solution (Epicentre) in a PCR plate for each well. PCR plate was incubated at 65° C. for 6 mins, 98° C. for 2 mins and finally cooled to 4° C. HBV DNA was then quantified by qPCR with HBV-specific primers and probes as specified in Table 2 using the Bio-Rad SSOAdvanced Universal Probes Supermix on a CFX96 machine (Bio-Rad). The PCR cycle program consisted of 95° C. for 3 mins, followed by 40 cycles at 95° C. for 10 sec and 60° C. for 30 sec.
A DNA standard was prepared by dilution of an IDT gBlock corresponding to the amplicon with concentrations ranging from 10^2 to 10^8 copies/input (i.e. per 4 μL) and used to generate a standard curve by plotting Cq values vs. HBV DNA standard concentration. The quantity of HBV DNA in each sample was determined by interpolating from the standard curve.
Cell viability was calculated as follows: % Cell viability=(luminescence value of test sample)/(average luminescence value of 2% DMSO control)×100%. HBV DNA inhibition was calculated as follows: 100−(HBV DNA copy number of test sample)/(average HBV DNA copy number of 2% DMSO control)×100%. No normalization to entecavir was required due to the excellent dynamic window of this assay. The CC50, EC so and EC90 values were determined by dose-response curves fitted by GraphPad Prism using “log (agonist) vs. response—Variable slope”.
(In general: Real-time PCR tracks product formation cycle by cycle.)
A word on the EC50: it is the concentration that produces a half-maximal response. Read a high EC50 as lower potency in that assay. The compound `CC(C)NC(=O)C1CN(C(=O)c2ccc(Br)c(Cl)c2)CCS1(=O)=O` (stereo not shown) [Compound 1, 4-(4-bromo-3-chlorobenzoyl)-N-isopropylthiomorpholine-2-carboxamide 1,1-dioxide] had a concentration giving a half-maximal response (EC50) of 0.5 to 5 µM. For `O=C(Nc1ccccc1)C1CN(C(=O)c2ccc(Br)c(Cl)c2)CCS1(=O)=O` (stereo not shown) [Compound 2, 4-(4-bromo-3-chlorobenzoyl)-N-phenylthiomorpholine-2-carboxamide 1,1-dioxide], the half-maximal effective concentration (EC50) is 0.5 to 5 µM. The same measure, in the same setting: then `O=C(NCc1ccccc1)C1CN(C(=O)c2ccc(Br)c(Cl)c2)CCS1(=O)=O` (stereo not shown) [Compound 3, N-benzyl-4-(4-bromo-3-chlorobenzoyl)thiomorpholine-2-carboxamide 1,1-dioxide], with 0.1 to 0.5 µM; and `O=C(NCCc1ccccc1)C1CN(C(=O)c2ccc(Br)c(Cl)c2)CCS1(=O)=O` (stereo not shown) [Compound 4, 4-(4-bromo-3-chlorobenzoyl)-N-phenethylthiomorpholine-2-carboxamide 1,1-dioxide], with 0.5 to 5 µM; and `O=C(c1ccc(Cl)cc1F)N1CCS(=O)(=O)C(c2cccs2)C1` (stereo not shown) [Compound 10b, (4-chloro-2-fluoro-phenyl)-[1,1-dioxo-2-(2-thienyl)-1,4-thiazinan-4-yl]methanone], with 0.5 to 5 µM. Same read-out and setting: the figure for `O=C(c1cc(F)cc(Cl)c1)N1CCS(=O)(=O)C(c2cccs2)C1` (stereo not shown) [Compound 13a, (3-chloro-5-fluoro-phenyl)-[1,1-dioxo-2-(2-thienyl)-1,4-thiazinan-4-yl]methanone] is 0.5 to 5 µM. On the same count and under the same terms, then `Cn1cnc(-c2ccc(C3CN(C(=O)Nc4ccc(F)c(Cl)c4)CCS3(=O)=O)s2)c1` (stereo not shown) [Compound 15a, N-(3-chloro-4-fluoro-phenyl)-2-[5-(1-methylimidazol-4-yl)-2-thienyl]-1,1-dioxo-1,4-thiazinane-4-carboxamide], with 0.5 to 5 µM; and `N=S1(=O)CCN(C(=O)Nc2ccc(F)c(Cl)c2)CC1c1cccs1` (stereo not shown) [Compound 17, N-(3-chloro-4-fluoro-phenyl)-1-imino-1-oxo-2-(2-thienyl)-1,4-thiazinane-4-carboxamide], with 0.5 to 5 µM. On to `C[C@H]1CS(=O)(=O)[C@H](c2cccs2)CN1C(=O)Nc1ccc(F)c(Cl)c1` [Compound 20, (2S,5S)—N-(3-chloro-4-fluoro-phenyl)-5-methyl-1,1-dioxo-2-(2-thienyl)-1,4-thiazinane-4-carboxamide], for which the EC50 was 0.5 to 5 µM. On the same count and under the same terms, then `C[C@H]1CS(=O)(=O)[C@@H](c2cccs2)CN1C(=O)Nc1ccc(F)c(Cl)c1` [Compound 21, (2R,5S)—N-(3-chloro-4-fluoro-phenyl)-5-methyl-1,1-dioxo-2-(2-thienyl)-1,4-thiazinane-4-carboxamide], with 0.1 to 0.5 µM; and `C[C@@H]1CS(=O)(=O)[C@H](c2cccs2)CN1C(=O)Nc1ccc(F)c(Cl)c1` [Compound 23, (2S,5R)-N-(3-chloro-4-fluorophenyl)-5-methyl-1,1-dioxo-2-(thiophen-2-yl)-1,4-thiomorpholine-4-carboxamide], with 0.5 to 5 µM. Same read-out and setting: the figure for `C[C@@H]1CS(=O)(=O)[C@@H](c2cccs2)CN1C(=O)c1ccc(Br)c(Cl)c1` [Compound 25, (4-bromo-3-chloro-phenyl)-[(2R,5R)-5-methyl-1,1-dioxo-2-(2-thienyl)-1,4-thiazinan-4-yl]methanone] is 0.5 to 5 µM; for `C[C@@H]1CS(=O)(=O)[C@H](c2cccs2)CN1C(=O)c1ccc(Br)c(Cl)c1` [Compound 26, (4-bromo-3-chloro-phenyl)-[(2S,5R)-5-methyl-1,1-dioxo-2-(2-thienyl)-1,4-thiazinan-4-yl]methanone] it is 0.5 to 5 µM. Same read-out and setting: then `O=C(c1ccc(Br)c(Cl)c1)N1CCS(=O)(=O)C(c2nccs2)C1` (stereo not shown) [Compound 27, (4-bromo-3-chloro-phenyl)-(1,1-dioxo-2-thiazol-2-yl-1,4-thiazinan-4-yl)methanone], with 0.1 to 0.5 µM. Regarding `O=C(c1ccc(Br)c(Cl)c1)N1CCS(=O)(=O)C(c2nnco2)C1` (stereo not shown) [Compound 28, (4-bromo-3-chloro-phenyl)-[2-(1,3,4-oxadiazol-2-yl)-1,1-dioxo-1,4-thiazinan-4-yl]methanone], the EC50 fell in the range of 0.5 to 5 µM. Still for that read-out and setting: then `Cc1cnc(C2CN(C(=O)c3ccc(Br)c(Cl)c3)CCS2(=O)=O)s1` (stereo not shown) [Compound 29, (4-bromo-3-chloro-phenyl)-[2-(5-methylthiazol-2-yl)-1,1-dioxo-1,4-thiazinan-4-yl]methanone], with no more than 0.1 µM; and `O=C(c1ccc(Br)c(Cl)c1)N1CCS(=O)(=O)C(c2ncc(Cc3ccccc3)s2)C1` (stereo not shown) [Compound 30, (2-(5-benzylthiazol-2-yl)-1,1-dioxidothiomorpholino)(4-bromo-3-chlorophenyl)methanone], with 0.1 to 0.5 µM.

Still in this experiment, the particulars now being: intracellular HBV DNA by qPCR, day 4.
`O=C(Nc1ccc(F)c(Cl)c1)N1CCS(=O)(=O)C(c2ccccc2)C1` (single isomer, unassigned) [Compound 18a, N-(3-chloro-4-fluoro-phenyl)-1, l-dioxo-2-phenyl-1,4-thiazinane-4-carboxamide] returned an EC50 of 0.5 to 5 µM. For `O=C(Nc1ccc(F)c(Cl)c1)N1CCS(=O)(=O)C(c2ccccc2)C1` (single isomer, unassigned) [Compound 18b, N-(3-chloro-4-fluoro-phenyl)-1, l-dioxo-2-phenyl-1,4-thiazinane-4-carboxamide], the 50% effective concentration (EC50) is greater than 5 µM. On the same count and under the same terms, the figure for `O=C(c1ccc(Br)c(Cl)c1)N1CCS(=O)(=O)C(c2ccccc2)C1` (single isomer, unassigned) [Compound 19a, (4-bromo-3-chloro-phenyl)-(1,1-dioxo-2-phenyl-1,4-thiazinan-4-yl)methanone] is 0.1 to 0.5 µM; for `O=C(c1ccc(Br)c(Cl)c1)N1CCS(=O)(=O)C(c2ccccc2)C1` (single isomer, unassigned) [Compound 19b, (4-bromo-3-chloro-phenyl)-(1,1-dioxo-2-phenyl-1,4-thiazinan-4-yl)methanone] it is 0.5 to 5 µM. Still for that read-out and setting: then `C[C@@H]1CS(=O)(=O)[C@](F)(c2ncc(Cc3ccccc3)s2)CN1C(=O)c1ccc(Br)c(Cl)c1` (stereo in doubt) [Compound 47a, (4-bromo-3-chloro-phenyl)-[(rac-2S,5R)-2-(5-benzylthiazol-2-yl)-2-fluoro-5-methyl-1,1-dioxo-1,4-thiazinan-4-yl]methanone], with greater than 5 µM; and `C[C@@H]1CS(=O)(=O)[C@@](F)(c2ncc(Cc3ccccc3)s2)CN1C(=O)c1ccc(Br)c(Cl)c1` (stereo in doubt) [Compound 47b, (4-bromo-3-chloro-phenyl)-[(rac-2R,5R)-2-(5-benzylthiazol-2-yl)-2-fluoro-5-methyl-1,1-dioxo-1,4-thiazinan-4-yl]methanone], with no more than 0.1 µM; and `C[C@H]1CS(=O)(=O)[C@](F)(c2ncc(Cc3ccccc3)s2)CN1C(=O)c1ccc(Br)c(Cl)c1` (stereo in doubt) [Compound 48a, (4-bromo-3-chloro-phenyl)-[(rac-2S,5S)-2-(5-benzylthiazol-2-yl)-2-fluoro-5-methyl-1,1-dioxo-1,4-thiazinan-4-yl]methanone], with 0.1 to 0.5 µM. For the compound `C[C@H]1CS(=O)(=O)[C@@](F)(c2ncc(Cc3ccccc3)s2)CN1C(=O)c1ccc(Br)c(Cl)c1` (stereo in doubt) [Compound 48b, (4-bromo-3-chloro-phenyl)-[(rac-2R,5S)-2-(5-benzylthiazol-2-yl)-2-fluoro-5-methyl-1,1-dioxo-1,4-thiazinan-4-yl]methanone], the concentration for a half-maximal effect (EC50) lay within 0.1 to 0.5 µM.
